Data: PubChem BioAssay (NCI)
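Briefly, cells in 96-well plates were exposed to five compound concentrations for 48 h, and endpoints were estimated by linear interpolation. At the GI50, growth is halved. TGI: concentration producing complete growth inhibition.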

Legend:
Assay in all cases: DTP human tumour cell line panel, 48 h
[1] = system: 786-0 renal
[2] = system: A498 renal
[3] = system: A549 NSCLC
[4] = system: ACHN renal
[5] = system: CAKI-1 renal
[6] = system: CCRF-CEM leukemia
[7] = system: COLO 205 colon
[8] = system: DU-145 prostate
[9] = system: HCC-2998 colon
[10] = system: HCT-116 colon
[11] = system: HCT-15 colon
[12] = system: HL-60(TB) leukemia
[13] = system: HOP-62 NSCLC
[14] = system: HOP-92 NSCLC
[15] = system: HT29 colon
[16] = system: IGROV1 ovarian
[17] = system: K-562 leukemia
[18] = system: KM12 colon
[19] = system: LOX IMVI melanoma
[20] = system: M14 melanoma
[21] = system: MALME-3M melanoma
[22] = system: MCF7 breast
[23] = system: MDA-MB-231 breast
[24] = system: MDA-MB-435
[25] = system: MDA-N
[26] = system: MOLT-4 leukemia
[27] = system: NCI-H226 lung
[28] = system: NCI-H23 lung
[29] = system: NCI-H460 lung
[30] = system: NCI-H522 lung
[31] = system: NCI/ADR-RES ovarian
[32] = system: OVCAR-3 ovarian
[33] = system: OVCAR-4 ovarian
[34] = system: OVCAR-5 ovarian
[35] = system: OVCAR-8 ovarian
[36] = system: PC-3 prostate
[37] = system: RXF 393 renal
[38] = system: SF-268 CNS
[39] = system: SF-295 CNS
[40] = system: SF-539 CNS
[41] = system: SK-MEL-2 melanoma
[42] = system: SK-MEL-28 melanoma
[43] = system: SK-MEL-5 melanoma
[44] = system: SK-OV-3 ovarian
[45] = system: SN12C renal
[46] = system: SNB-19 CNS
[47] = system: SNB-75 CNS
[48] = system: SR leukemia
[49] = system: SW-620 colon
[50] = system: T-47D breast
[51] = system: TK-10 renal
[52] = system: U251 CNS
[53] = system: UACC-257 melanoma
[54] = system: UACC-62 melanoma
[55] = system: UO-31 renal
[56] = system: BT-549 breast
[57] = system: EKVX NSCLC
[58] = system: HS 578T breast
[59] = system: RPMI-8226 leukemia

COc1ccc(-c2c(C(C)=O)c(C)n(C3OC(COC(C)=O)C(OC(C)=O)C(OC(C)=O)C3OC(C)=O)c(=S)c2C#N)cc1 (stereo not given)
TGI [1]: > 100 µM
TGI [2]: > 100 µM
TGI [3]: > 100 µM
TGI [4]: > 100 µM
TGI [5]: > 100 µM
TGI [6]: > 100 µM
TGI [7]: > 100 µM
TGI [8]: > 100 µM
TGI [9]: > 100 µM
TGI [10]: > 100 µM
TGI [11]: > 100 µM
TGI [12]: > 100 µM
TGI [13]: > 100 µM
TGI [14]: 84.6 µM
TGI [15]: > 100 µM
TGI [16]: > 100 µM
TGI [17]: > 100 µM
TGI [18]: > 100 µM
TGI [19]: > 100 µM
TGI [20]: > 100 µM
TGI [21]: > 100 µM
TGI [22]: > 100 µM
TGI [23]: > 100 µM
TGI [24]: > 100 µM
TGI [25]: > 100 µM
TGI [26]: > 100 µM
TGI [27]: > 100 µM
TGI [28]: > 100 µM
TGI [29]: > 100 µM
TGI [30]: > 100 µM
TGI [31]: > 100 µM
TGI [32]: > 100 µM
TGI [33]: > 100 µM
TGI [34]: > 100 µM
TGI [35]: > 100 µM
TGI [36]: > 100 µM
TGI [37]: > 100 µM
TGI [38]: > 100 µM
TGI [39]: > 100 µM
TGI [40]: > 100 µM
TGI [41]: > 100 µM
TGI [42]: > 100 µM
TGI [43]: > 100 µM
TGI [44]: > 100 µM
TGI [45]: > 100 µM
TGI [46]: > 100 µM
TGI [47]: > 100 µM
TGI [48]: > 100 µM
TGI [49]: > 100 µM
TGI [50]: > 100 µM
TGI [51]: > 100 µM
TGI [52]: > 100 µM
TGI [53]: > 100 µM
TGI [54]: > 100 µM
TGI [55]: 5.01 µM

Cc1cccc2c1NC(=O)[C@@H](NC(=O)[C@H](CCC(F)(F)F)[C@H](CCC(F)(F)F)C(N)=O)N=C2c1cccc(F)c1
GI50 [1]: 20.6 µM
TGI [1]: 56.3 µM
GI50 [2]: 36.6 µM
TGI [2]: > 100 µM
GI50 [3]: 36.6 µM
TGI [3]: > 100 µM
GI50 [4]: 45.1 µM
TGI [4]: > 100 µM
GI50 [56]: 16.2 µM
TGI [56]: 66.1 µM
GI50 [5]: > 100 µM
TGI [5]: > 100 µM
GI50 [6]: > 100 µM
TGI [6]: > 100 µM
GI50 [7]: > 100 µM
TGI [7]: > 100 µM
GI50 [8]: 71.4 µM
TGI [8]: > 100 µM
GI50 [57]: 40.5 µM
TGI [57]: > 100 µM
GI50 [9]: 60 µM
TGI [9]: > 100 µM
GI50 [10]: 51.2 µM
TGI [10]: > 100 µM
GI50 [11]: > 100 µM
TGI [11]: > 100 µM
GI50 [12]: > 100 µM
TGI [12]: > 100 µM
GI50 [13]: 25.8 µM
TGI [13]: 92.1 µM
GI50 [14]: 14.4 µM
TGI [14]: 57.1 µM
GI50 [58]: 20.4 µM
TGI [58]: 64 µM
GI50 [15]: > 100 µM
TGI [15]: > 100 µM
GI50 [16]: 27.7 µM
TGI [16]: > 100 µM
GI50 [17]: > 100 µM
TGI [17]: > 100 µM
GI50 [18]: > 100 µM
TGI [18]: > 100 µM
GI50 [19]: 64.8 µM
TGI [19]: > 100 µM
GI50 [20]: 73.2 µM
TGI [20]: > 100 µM
GI50 [21]: 50 µM
TGI [21]: > 100 µM
GI50 [22]: 24.1 µM
TGI [22]: > 100 µM
GI50 [23]: 18.2 µM
TGI [23]: 59.1 µM
GI50 [24]: > 100 µM
TGI [24]: > 100 µM
GI50 [26]: > 100 µM
TGI [26]: > 100 µM
GI50 [27]: 17 µM
TGI [27]: 73.4 µM
GI50 [28]: 30.5 µM
TGI [28]: > 100 µM
GI50 [29]: 31.3 µM
TGI [29]: > 100 µM
GI50 [30]: 16.6 µM
TGI [30]: 53.7 µM
GI50 [31]: 26.3 µM
TGI [31]: > 100 µM
GI50 [32]: 33.3 µM
TGI [32]: > 100 µM
GI50 [33]: 22.4 µM
TGI [33]: 61.9 µM
GI50 [34]: 86.4 µM
TGI [34]: > 100 µM
GI50 [35]: 30.5 µM
TGI [35]: > 100 µM
GI50 [36]: 39.5 µM
TGI [36]: > 100 µM
GI50 [59]: > 100 µM
TGI [59]: > 100 µM
GI50 [37]: 13.5 µM
TGI [37]: 40.4 µM
GI50 [38]: 23.2 µM
TGI [38]: 70 µM
GI50 [39]: 25.8 µM
TGI [39]: > 100 µM
GI50 [40]: 18.4 µM
TGI [40]: 41.8 µM
GI50 [41]: 41.5 µM
TGI [41]: > 100 µM
GI50 [42]: > 100 µM
TGI [42]: > 100 µM
GI50 [43]: > 100 µM
TGI [43]: > 100 µM
GI50 [44]: 28.7 µM
TGI [44]: 91.3 µM
GI50 [45]: 28.4 µM
TGI [45]: > 100 µM
GI50 [46]: 17 µM
TGI [46]: 41 µM
GI50 [47]: 10.8 µM
TGI [47]: 32.1 µM
GI50 [48]: 49.4 µM
TGI [48]: > 100 µM
GI50 [49]: > 100 µM
TGI [49]: > 100 µM
GI50 [50]: 34.5 µM
TGI [50]: > 100 µM
GI50 [51]: 34.7 µM
TGI [51]: > 100 µM
GI50 [52]: 20.2 µM
TGI [52]: 59.2 µM
GI50 [53]: 48.6 µM
TGI [53]: > 100 µM
GI50 [54]: 28.2 µM
TGI [54]: > 100 µM
GI50 [55]: > 100 µM
TGI [55]: > 100 µM

COc1ccc(C(=O)/C=C/c2ccc(OCC(=O)N3CCN(c4ccccc4)CC3)cc2)cc1OC
TGI [1]: > 10 µM
TGI [3]: > 10 µM
TGI [5]: > 10 µM
TGI [6]: 7.21 µM
TGI [7]: > 10 µM
TGI [8]: > 10 µM
TGI [57]: > 10 µM
TGI [9]: > 10 µM
TGI [11]: > 10 µM
TGI [12]: > 10 µM
TGI [13]: > 10 µM
TGI [15]: > 10 µM
TGI [16]: > 10 µM
TGI [17]: > 10 µM
TGI [18]: > 10 µM
TGI [20]: > 10 µM
TGI [21]: > 10 µM
TGI [22]: > 10 µM
TGI [23]: > 10 µM
TGI [25]: > 10 µM
TGI [26]: 7.06 µM
TGI [28]: 5.55 µM
TGI [35]: > 10 µM
TGI [36]: > 10 µM
TGI [59]: > 10 µM
TGI [37]: 3.86 µM
TGI [38]: > 10 µM
TGI [39]: > 10 µM
TGI [42]: > 10 µM
TGI [43]: > 10 µM
TGI [44]: > 10 µM
TGI [45]: > 10 µM
TGI [47]: 8.75 µM
TGI [48]: 6.47 µM
TGI [49]: > 10 µM
TGI [50]: > 10 µM
TGI [51]: > 10 µM
TGI [53]: > 10 µM
TGI [54]: > 10 µM
